Measurements as given in patent publication US20240150366A1, “4-AMINOQUINAZOLINE COMPOUND” (Astellas Pharma Inc., priority 2021, published 2024).
Read-outs that look alike come from different tables or passages of the source.

Assays:
[1] = target: KRAS G12D/SOS/c-Raf complex (Homo sapiens (Human), UniProt P01116, G12D); experiment: KRAS G12D/SOS/c-Raf complex formation inhibitory activity (TR-FRET); type: biochemical; settings: human recombinant proteins, 1 hour at room temperature, read-out: IC50, KRAS G12D/SOS/c-Raf complex formation inhibition
Sequence of KRAS G12D/SOS/c-Raf complex (P01116 other isoform, or with tags, fused parts or gaps G12D): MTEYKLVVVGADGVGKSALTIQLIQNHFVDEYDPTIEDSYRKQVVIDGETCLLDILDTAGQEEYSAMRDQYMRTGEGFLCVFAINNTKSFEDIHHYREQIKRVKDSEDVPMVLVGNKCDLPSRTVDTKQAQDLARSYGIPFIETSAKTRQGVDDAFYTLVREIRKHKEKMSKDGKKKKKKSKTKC
Method: Using human recombinant KRAS G12D, SOS and c-Raf proteins, the inhibitory activity of subject compounds on the complex formation of the proteins was examined by a time-resolved fluorescence resonance energy transfer (TR-FRET) method.
Biotinylated AviTag-KRAS G12D (amino acid region of 1-185, GDP) (2.5 μL; 400 nM) and subject compounds dissolved in an assay buffer (50 mM HEPES, 150 mM NaCl, 5 mM MgCl2, 0.05% Tween 20, pH 7.0) were added to a 384-well plate (from Corning) in a liquid volume of 2.5 μL at 40,000 nM to 40 nM. Son of Sevenless (SOS) (amino acid region of 564-1049, 2.5 μL; 1.3 μM) and c-Raf (amino acid region of 51-131) GST (2.5 μL; 130 nM) containing GTP (from Sigma-Aldrich; 2 μM) were added to the plate, and the plate was allowed to stand for 1 hour at room temperature. Then, a mixture liquid (10 μL) of LANCE Ulight-anti-GST (from PerkinElmer; 120 nM) and LANCE Eu-W1024 labeled Streptoavidin (from PerkinElmer; 100 ng/mL) was added, and the 620-nm and 665-nm fluorescence intensities were measured using EnVision 2104 (from PerkinElmer) under the conditions of an excitation wavelength of 337 nm. After standardizing the values with the fluorescence intensity at a reference wavelength of 620 nm, the 50% inhibitory concentrations (IC50) were calculated by Sigmoid-Emax model nonlinear regression analysis with the signaling value in treatment with the solvent taken as 0% inhibition and with the signaling value without the addition of GTP taken as 100% inhibition.

[2] = test system: ERK phosphorylation (Thr202/Tyr204) in KRAS G12D mutant-positive pancreatic cancer line AsPC-1; experiment: ERK phosphorylation inhibitory activity in AsPC-1 (cell ELISA); type: cell-based; settings: Homo sapiens, read-out: IC50, ERK phosphorylation inhibition
Method: The ERK phosphorylation inhibitory activities of subject compounds were evaluated by measuring phosphorylation of the 202th threonine (Thr202) and the 204th tyrosine (Tyr204) of ERK located downstream of the KRAS signal by cell ELISA.
AsPC-1 cells (ATCC, CRL-1682) were seeded at 36 μL/well on a 384-well plate (from Greiner bio-one) to give 2.0×10^4 cells per well. As for the cell culture conditions, RPMI-1640 medium (from Sigma-Aldrich) containing 10% fetal bovine serum (from GE Life Sciences) was used in the presence of 5% CO2 at 37° C.
The next day, the subject compounds (6 points having final concentrations in the range of 10 μM to 0.3 nM), trametinib (MEK inhibitor) of a final concentration of 1 μM as a positive control and DMSO, which was the solvent for the subject compounds, as a negative control were diluted 100-fold with a fresh medium and were each added at 4 μL per well, followed by culturing for 2 hours. After culturing, a 30% glyoxal solution (40% glyoxal [from Wako] was diluted with Phosphate Buffered Saline [PBS; from Wako) was quickly added at 30 μL per well, and the plate was allowed to stand for an hour at room temperature to thus immobilize the cells. Then, the plate was centrifuged (110× g, seven seconds, hereinafter centrifugation was performed under the same conditions unless otherwise specified) to remove the supernatant, and 0.1% Triton X-100 (from Amersham Biosciences)—containing PBS was added at 20 μL per well. After allowing the plate to stand for 10 minutes at room temperature, the supernatant was removed by centrifugation, and the same operation was further repeated. Next, 0.5% sodium dodecyl sulfate (SDS; from Invitrogen)-containing PBS was added at 20 μL per well. The plate was allowed to stand at room temperature for 30 minutes and was then centrifuged to remove the supernatant. Subsequently, a blocking solution (Intercept Blocking Buffer; from LI-COR Biosciences) was added at 20 μL per well, and the plate was allowed to stand for an hour at room temperature. The supernatant was removed by centrifugation, and an ERK (Thr202/Tyr204) phosphorylation antibody (Phospho-p44/42 MAPK (Erk 1/2) (Thr202/Tyr204) (D13.14.4E) XP Rabbit mAb; from Cell Signaling Technology) diluted 2,500-fold with the blocking solution was added at 10 μL per well as a primary antibody. The plate was allowed to stand at 4° C. overnight.
The next day, the plate was centrifuged to remove the supernatant, and 0.05% Tween-20-containing PBS (from Thermo Scientific; 20× PBS Tween-20 was diluted 20-fold with ion exchange water and used) was added at 20 μL per well. The supernatant was removed by centrifugation to thus wash each well. The washing was performed three times in total. After washing, an IRDye 800CW Goat anti-Rabbit IgG (from LI-COR Biosciences) diluted 1,000-fold with the blocking solution was added at 10 μL per well as a secondary antibody, and the plate was allowed to stand for an hour at room temperature. The plate was centrifuged to remove the supernatant, and each well was washed three times with 0.05% Tween-20-containing PBS in the same manner as after the primary antibody reaction. Centrifugation after the third washing was performed at 171×g for 17 seconds. After removing the supernatant, the plate was dried as it was with air at room temperature for three hours or more, and the 800-nm fluorescent signals were measured with Aerius (from LI-COR Biosciences).
With the signaling value at the time of addition of DMSO taken as 0% inhibition and with the signaling value at the time of addition of […] trametinib taken as 100% inhibition, the 50% inhibition values (IC50) were calculated by Sigmoid-Emax model nonlinear regression analysis.

[3] = test system: KRAS G12D mutant-positive pancreatic cancer line AsPC-1; experiment: Non-anchorage-dependent cell growth inhibitory activity in AsPC-1 (spheroid 3D culture); type: cell-based; settings: Homo sapiens, ASPC1, 144 h, read-out: IC50, non-anchorage-dependent cell growth inhibition
Method: The non-anchorage-dependent cell growth inhibitory activities of subject compounds were evaluated by spheroid 3D cell culture.
AsPC-1 cells were seeded at 36 μL/well on a low-cell-adhesive round bottom 384-well plate (Prime Surface: from Sumitomo Bakelite) to give 5×10^2 cells per well. The cell culture was performed under the same conditions as in the Test Example 2.
The next day, the subject compounds (6 points having final concentrations in the range of 10 μM to 3.0 nM) and DMSO, which was the solvent for the subject compounds, as a negative control were diluted 100-fold with a fresh medium and were each added at 4 μL per well. After culturing in the presence of 5% CO2 at 37° C. for six days, CellTiter Glo 2.0 (from Promega) was added at 20 μL per well. After stirring with a plate mixer (from FINEPCR) at normal temperature for an hour, the luminescent signals were measured with ARVO X3 (from PerkinElmer).
With the signaling value in treatment with DMSO taken as 0% inhibition and with the signaling value in the medium alone without cells taken as 100% inhibition, the 50% inhibition values (IC50) were calculated by Sigmoid-Emax model nonlinear regression analysis.

| SMILES | IC50 [1] [nM] | IC50 ([2]; ASPC1, 2 h) [nM] | IC50 [3] [nM] | IC50 ([2]; ASPC1, AsPC-1 cells, 2 hours culture, cell ELISA) [nM] | IC50 ([3]; AsPC-1 spheroid 3D culture, six days, CellTiter Glo 2.0) [nM] |
| --- | --- | --- | --- | --- | --- |
| Cc1c(F)cc2[nH]ncc2c1-c1c(C2CC2)cc2c(N3C[C@@H]4C[C@H]3CN4)nc(OCc3cccnc3C(C)C)nc2c1OCc1ccc(Cn2c(=O)n(C)c3ncccc32)cc1 [Example 10, 1-[(4-{[(6-cyclopropyl-4-[(1S,4S)-2,5-diazabicyclo[2.2.1]heptan-2-yl]-7-(6-fluoro-5-methyl-1H-indazol-4-yl)-2-{[2-(propan-2-yl)pyridin-3-yl]methoxy}quinazolin-8-yl)oxy]methyl}phenyl)methyl]-3-methyl-1,3-dihydro-2H-imidazo[4,5-b]pyridin-2-one] | 33 | 41 | 77 | – | – |
| Cc1c(F)cc2[nH]ncc2c1-c1c(C2CC2)cc2c(N3C[C@@H]4C[C@H]3CN4)nc(OC3CCOCC3)nc2c1OCc1ccc(CN2CCN(C(C)C)CC2=O)cc1 [Example 6, 1-({4-[({6-cyclopropyl-4-[(1S,4S)-2,5-diazabicyclo[2.2.1]heptan-2-yl]-7-(6-fluoro-5-methyl-1H-indazol-4-yl)-2-[(oxan-4-yl)oxy]quinazolin-8-yl}oxy)methyl]phenyl}methyl)-4-(propan-2-yl)piperazin-2-one] | 91 | 36 | 92 | – | – |
| Cc1c(F)cc2[nH]ncc2c1-c1c(C2CC2)cc2c(N3C[C@@H]4C[C@H]3CN4)nc(OC3CCOCC3)nc2c1OCc1ccc(CN2CCN(C3CCOCC3)CC2=O)cc1 [Example 5, 1-({4-[({6-cyclopropyl-4-[(1S,4S)-2,5-diazabicyclo[2.2.1]heptan-2-yl]-7-(6-fluoro-5-methyl-1H-indazol-4-yl)-2-[(oxan-4-yl)oxy]quinazolin-8-yl}oxy)methyl]phenyl}methyl)-4-(oxan-4-yl)piperazin-2-one] | 107 | 32 | 83 | – | – |
| Cc1cc(C)n2cc(Cc3ccc(COc4c(-c5c(C)c(F)cc6[nH]ncc56)c(C5CC5)cc5c(N6C[C@@H]7C[C@H]6CN7)nc(OC6CCOCC6)nc45)cc3)nc2n1 [Example 9, 6-cyclopropyl-4-[(1S,4S)-2,5-diazabicyclo[2.2.1]heptan-2-yl]-8-({4-[(5,7-dimethylimidazo[1,2-a]pyrimidin-2-yl)methyl]phenyl}methoxy)-7-(6-fluoro-5-methyl-1H-indazol-4-yl)-2-[(oxan-4-yl)oxy]quinazoline] | 44 | 44 | 84 | – | – |
| Cc1c(F)cc2[nH]ncc2c1-c1c(C2CC2)cc2c(N3C[C@@H]4C[C@H]3CN4)nc(OC3CCOCC3)nc2c1OCc1ccc(Cc2ncn(C3COC3)n2)cc1 [Example 3, 6-cyclopropyl-4-[(1S,4S)-2,5-diazabicyclo[2.2.1]heptan-2-yl]-7-(6-fluoro-5-methyl-1H-indazol-4-yl)-2-[(oxan-4-yl)oxy]-8-[(4-{[1-(oxetan-3-yl)-1H-1,2,4-triazol-3-yl]methyl}phenyl)methoxy]quinazoline] | 75 | – | – | 55 | 128 |
| Cc1c(F)cc2[nH]ncc2c1-c1c(C2CC2)cc2c(N3C[C@@H]4C[C@H]3CN4)nc(OC3CCOCC3)nc2c1OCc1ccc(Cc2nc3ncccn3n2)cc1 [Example 13, 6-cyclopropyl-4-[(1S,4S)-2,5-diazabicyclo[2.2.1]heptan-2-yl]-7-(6-fluoro-5-methyl-1H-indazol-4-yl)-2-[(oxan-4-yl)oxy]-8-({4-[([1,2,4]triazolo[1,5-a]pyrimidin-2-yl)methyl]phenyl}methoxy)quinazoline] | 77 | 78 | 130 | – | – |
| Cc1c(F)cc2[nH]ncc2c1-c1c(C2CC2)cc2c(N3C[C@@H]4C[C@H]3CN4)nc(O[C@@H]3CCCc4cnccc43)nc2c1OCc1ccc(Cn2c(=O)n(C)c3ncccc32)cc1 [Example 8, 1-[(4-{[(6-cyclopropyl-4-[(1S,4S)-2,5-diazabicyclo[2.2.1]heptan-2-yl]-7-(6-fluoro-5-methyl-1H-indazol-4-yl)-2-{[(5R)-5,6,7,8-tetrahydroisoquinolin-5-yl]oxy}quinazolin-8-yl)oxy]methyl}phenyl)methyl]-3-methyl-1,3-dihydro-2H-imidazo[4,5-b]pyridin-2-one] | 40 | 30 | 73 | – | – |
